{"source": "patent US20190270733A1", "about": "“Quinoline and Isoquinoline Based HDAC Inhibitors and Methods of Use Thereof” (Reaction Biology Corp., priority 2018, published 2019)", "target": "T1, Recombinant human HDAC6 (Homo sapiens, UniProt Q9UBN7)", "T1 construct": "full-length, MW=180 kDa; GST tag (N); made in house; host or cells: Sf9 insect cells (baculovirus)", "T1 sequence (Q9UBN7 1-1215)": "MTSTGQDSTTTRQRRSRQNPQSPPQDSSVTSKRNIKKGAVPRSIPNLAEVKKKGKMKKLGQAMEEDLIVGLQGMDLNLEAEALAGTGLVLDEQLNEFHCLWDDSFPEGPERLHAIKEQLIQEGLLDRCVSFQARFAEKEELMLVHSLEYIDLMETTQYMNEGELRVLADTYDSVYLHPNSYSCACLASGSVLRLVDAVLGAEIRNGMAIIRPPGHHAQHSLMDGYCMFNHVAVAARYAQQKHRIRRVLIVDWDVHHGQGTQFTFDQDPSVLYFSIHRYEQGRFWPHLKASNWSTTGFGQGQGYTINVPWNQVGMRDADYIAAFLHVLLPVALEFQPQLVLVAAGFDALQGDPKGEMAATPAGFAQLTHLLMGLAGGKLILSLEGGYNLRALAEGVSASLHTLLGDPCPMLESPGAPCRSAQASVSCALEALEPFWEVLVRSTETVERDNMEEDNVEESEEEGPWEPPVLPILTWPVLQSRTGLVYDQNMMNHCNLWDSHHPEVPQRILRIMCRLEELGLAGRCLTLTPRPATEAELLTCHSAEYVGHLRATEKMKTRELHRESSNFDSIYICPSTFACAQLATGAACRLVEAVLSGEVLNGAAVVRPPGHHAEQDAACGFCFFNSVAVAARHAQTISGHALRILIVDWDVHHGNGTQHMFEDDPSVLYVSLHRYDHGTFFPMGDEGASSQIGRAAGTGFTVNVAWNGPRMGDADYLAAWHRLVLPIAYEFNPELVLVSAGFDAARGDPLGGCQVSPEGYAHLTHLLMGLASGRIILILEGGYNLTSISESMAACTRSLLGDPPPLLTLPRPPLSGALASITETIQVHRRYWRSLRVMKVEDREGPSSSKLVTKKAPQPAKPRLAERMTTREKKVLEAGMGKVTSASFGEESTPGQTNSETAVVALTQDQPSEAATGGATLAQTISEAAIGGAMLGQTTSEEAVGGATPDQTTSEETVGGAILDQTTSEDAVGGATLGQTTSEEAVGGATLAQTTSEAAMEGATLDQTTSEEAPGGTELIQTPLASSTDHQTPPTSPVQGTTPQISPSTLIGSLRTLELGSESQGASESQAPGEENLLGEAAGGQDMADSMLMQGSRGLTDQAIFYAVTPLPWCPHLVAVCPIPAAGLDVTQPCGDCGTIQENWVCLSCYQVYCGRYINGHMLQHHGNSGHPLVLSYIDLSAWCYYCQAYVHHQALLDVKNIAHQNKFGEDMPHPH", "assay": "Biochemical HDAC assay, HDAC6", "conditions": "incubation time 10 min", "protocol": "Recombinant human HDAC6 (GenBank Accession No. BC069243), full-length, MW=180 kDa, was expressed by baculovirus in Sf9 insect cells using an N-terminal GST tag.\n• I. Compound handling: Testing compounds were dissolved in 100% DMSO to a specific concentration. The serial dilution was conducted by epMotion 5070 in DMSO. • II. HDAC reaction buffer: 50 mM Tris-HCl, pH8.0, 137 mM NaCl, 2.7 mM KCl, and 1 mM MgCl2, Added fresh: 1 mg/ml BSA, 1% DMSO. • III. Substrate: Fluorogenic HDAC General Substrate for HDAC1, 2, 3, 6, 10, 11 ans Sirt1, 2 and 3: Arg-His-Lys-Lys(Ac); HDAC8 only substrate: Arg-His-Lys(Ac)-Lys(Ac); Class2A Substrate (HDAC4, 5, 7 and 9): Acetyl-Lys(trifluoroacetyl)-AMC; Sirt5 substrate: Ac-Lys(succinyl)-AMC. • IV. General Reaction Procedure: (Standard IC50 determination) • a. Delivered 2× enzyme in wells of reaction plate except No Enzyme (No En) control wells. Add buffer in No En wells. • b. Delivered compounds in 100% DMSO into the enzyme mixture by Acoustic technology (Echo550; nanoliter range). Spin down and pre-incubation. • c. Delivered 2× Substrate Mixture (Fluorogenic HDAC Substrate and co-factor (500 μM of Nicotinamide adenine dinucleotide (NAD^+) in all Sirt assay) in all reaction wells to initiate the reaction. Spin and shake. • d. Incubated for 1-2 hr. at 30° C. with seal. • e. Added Developer with Trichostatin A (or TMP269 or NAD^+) to stop the reaction and to generate fluorescent color. • f. Fluorescence was read (excitatory, 360; emission, 460) using the EnVision Multilabel Plate Reader (Perkin Elmer) • g. Endpoint reading was taken for analysis after the development reaches plateau. • V. Data Analysis: The percentages of enzyme activity (relative to DMSO controls) and IC50 values were calculated using the GraphPad Prism 4 program based on a sigmoidal dose-response equation.\nCompounds with indicated doses was tested in the biochemical assays of HDAC1, HDAC2, HDAC3, HDAC4, HDAC5, HDAC6, HDAC7, HDAC8, HDAC9, HDAC10, or HDAC11 enzyme. The incubation time in HDAC1/2 assays are 120 min, and that for other HDACs are 10 min. The curve fit and IC50 values were calculated using the GraphPad Prism 4 program based on a sigmoidal dose-response equation."}
{"smiles": "Nc1ccc(-c2cccs2)cc1NC(=O)c1ccc2c(c1)CCC(=O)N2", "note": "[Example 5, N-(2-amino-5-(thiophen-2-yl)phenyl)-2-oxo-1,2,3,4-tetrahydroquinoline-6-carboxamide]", "values": [{"measurement": "IC50", "value": "> 10", "unit": "µM"}]}
